The results in this text go back to ChEMBL document CHEMBL5303304, “EUbOPEN Chemogenomics Library - IncuCyte” (2023).

What all share (assay type): toxicity, cell-based
Data set [1] deals with U2OS. As to the kind of experiment: Incucyte cell viability with U2OS. Conditions: human, 10 µM, compound concentration 10 uM.
For data set [2], the system named is HEK-293T. As to the kind of experiment: Incucyte cell viability with HEK293T. Conditions: human, 10 µM, compound concentration 10 uM.
The test system of data set [3] is Fibroblast. As to the kind of experiment: Incucyte cell viability with human fibroblast. Conditions: 10 µM, compound concentration 10 uM.
Further: unitless GR value; below 1 slowed growth and below 0 cell loss.

Regarding `CNc1nc(Nc2ccc(C(=O)N3CCOCC3)cc2OC)nc2[nH]cc(Cl)c12`, the “Growth Rate” value in data set [1] (0 h, replicate number 1) is listed as -0.99; in data set [1] (12 h, replicate number 2), 0.5; in data set [2] (6 h, replicate number 1) it was 0.03; in data set [2] (6 h, replicate number 2) it was -0.31; in data set [2] (12 h, replicate number 1) it was 0.06; in data set [2] (12 h, replicate number 2), -0.05. The “Growth Rate” value in data set [2] (18 h, replicate number 1) is given as 0.26; in data set [2] (18 h, replicate number 2), 0.08; in data set [2] (24 h, replicate number 1), 0.27; in data set [2] (24 h, replicate number 2) it was 0.24; in data set [3] (0 h, replicate number 1) it was -0.95; in data set [3] (0 h, replicate number 2), -0.43.

Regarding `CN[C@@H]1CC[C@@H](c2ccc(Cl)c(Cl)c2)c2ccccc21.Cl`, the “Growth Rate” value in data set [1] (0 h, replicate number 1) is reported as -0.9; in data set [1] (0 h, replicate number 2), 0.34; in data set [1] (6 h, replicate number 1), 0.8; in data set [1] (6 h, replicate number 2), 0.35; in data set [1] (12 h, replicate number 1), 0.75; in data set [1] (12 h, replicate number 2), 0.04. For the same molecule, the “Growth Rate” value in data set [1] (18 h, replicate number 1) was 0.81; in data set [1] (18 h, replicate number 2), 0.41; in data set [1] (24 h, replicate number 1) it was 0.85; in data set [1] (24 h, replicate number 2), 0.45; in data set [2] (0 h, replicate number 2), -1; in data set [2] (6 h, replicate number 1), 0. Besides, the “Growth Rate” value in data set [2] (6 h, replicate number 2) is -0.43; in data set [2] (12 h, replicate number 1), 0.01; in data set [2] (12 h, replicate number 2), -0.18; in data set [2] (18 h, replicate number 1), 0.17; in data set [2] (18 h, replicate number 2), -0.04; in data set [2] (24 h, replicate number 1) it was 0.2. Further, the “Growth Rate” value is given as 0.07 in data set [2] (24 h, replicate number 2); -0.46 in data set [3] (6 h, replicate number 1); -0.24 in data set [3] (12 h, replicate number 1); -0.45 in data set [3] (12 h, replicate number 2); -0.26 in data set [3] (18 h, replicate number 1); -0.33 in data set [3] (18 h, replicate number 2). In addition, the “Growth Rate” value in data set [3] (24 h, replicate number 1) is listed as -0.06; in data set [3] (24 h, replicate number 2), -0.2.

Take `C[C@@H]1CC(=O)N(C2CC2)N=C1c1ccc(NC(=O)N2Cc3ccncc3C2)cc1`: the “Growth Rate” value is on record as 0.59 in data set [1] (6 h, replicate number 1); 0.94 in data set [1] (12 h, replicate number 1); 0.95 in data set [1] (24 h, replicate number 1); 0.95 in data set [2] (0 h, replicate number 1); -0.07 in data set [2] (0 h, replicate number 2); 0.41 in data set [2] (6 h, replicate number 1). For the same molecule, the “Growth Rate” value is 0.39 in data set [2] (6 h, replicate number 2); 0.41 in data set [2] (12 h, replicate number 1); 0.67 in data set [2] (12 h, replicate number 2); 0.46 in data set [2] (18 h, replicate number 1); 0.53 in data set [2] (18 h, replicate number 2); 0.28 in data set [2] (24 h, replicate number 1). Besides, the “Growth Rate” value in data set [2] (24 h, replicate number 2) was 0.32; in data set [3] (0 h, replicate number 1), -0.95; in data set [3] (0 h, replicate number 2), -0.77; in data set [3] (6 h, replicate number 1), 0.8; in data set [3] (6 h, replicate number 2), -0.07; in data set [3] (12 h, replicate number 2), 0.57. Also, the “Growth Rate” value in data set [3] (18 h, replicate number 2) was 0.85; in data set [3] (24 h, replicate number 2) it was 0.81.

`Oc1c(CN2CCCC2)cc(COCc2ccccc2)c2cccnc12`: the “Growth Rate” value is reported as 0.25 in data set [1] (0 h, replicate number 1); 0.93 in data set [1] (6 h, replicate number 1); 0.91 in data set [1] (6 h, replicate number 2); 0.55 in data set [1] (12 h, replicate number 1); 0.58 in data set [1] (12 h, replicate number 2); 0.93 in data set [1] (18 h, replicate number 1). The “Growth Rate” value in data set [1] (18 h, replicate number 2) is reported as 0.56; in data set [1] (24 h, replicate number 1) it was 0.79; in data set [1] (24 h, replicate number 2), 0.54; in data set [2] (0 h, replicate number 2), -0.99; in data set [2] (6 h, replicate number 1), 0.34; in data set [2] (6 h, replicate number 2), 0.05. In addition, the “Growth Rate” value in data set [2] (12 h, replicate number 1) was -0.04; in data set [2] (12 h, replicate number 2) it was -0.05; in data set [2] (18 h, replicate number 1), -0.09; in data set [2] (18 h, replicate number 2) it was -0.21; in data set [2] (24 h, replicate number 1) it was -0.18; in data set [2] (24 h, replicate number 2), -0.25. Moreover, the “Growth Rate” value in data set [3] (0 h, replicate number 1) is 0.87; in data set [3] (18 h, replicate number 1) it was 0.96; in data set [3] (24 h, replicate number 1), 0.83; in data set [3] (24 h, replicate number 2), 0.6.

As to `CC(C)(O)CNC(=O)N1C(=O)N(c2cccc(C(F)(F)F)c2)C2=C(C(=O)CC2)[C@@H]1c1ccc(C#N)cc1`, the “Growth Rate” value is reported as 0.14 in data set [1] (0 h, replicate number 1); 0.14 in data set [1] (6 h, replicate number 1); 0.9 in data set [1] (6 h, replicate number 2); 0.58 in data set [1] (12 h, replicate number 1); 0.65 in data set [1] (18 h, replicate number 1); 0.76 in data set [1] (24 h, replicate number 1). Moreover, the “Growth Rate” value was 0.26 in data set [2] (0 h, replicate number 1); 0.97 in data set [2] (12 h, replicate number 2); 0.57 in data set [3] (6 h, replicate number 1); 0.94 in data set [3] (18 h, replicate number 2).

Consider `O=C(O)c1ccc2c(c1)nc(NCc1ccccc1)c1ncncc12`, for which the “Growth Rate” value in data set [1] (0 h, replicate number 1) is recorded as 0.98; in data set [2] (0 h, replicate number 1), -0.17; in data set [2] (0 h, replicate number 2), -0.9; in data set [3] (0 h, replicate number 1) it was -0.98; in data set [3] (0 h, replicate number 2) it was -0.94; in data set [3] (12 h, replicate number 1) it was 0.74.

For `CN(C)[C@H]1CC[C@H](Nc2ncc3ncnc(Nc4ccc(F)c(Cl)c4)c3n2)CC1`, the “Growth Rate” value in data set [1] (0 h, replicate number 1) is -1; in data set [1] (0 h, replicate number 2), 0.58; in data set [1] (6 h, replicate number 2) it was 0.45; in data set [1] (12 h, replicate number 1), 0.48; in data set [1] (12 h, replicate number 2) it was 0.5; in data set [1] (18 h, replicate number 1), 0.38. Besides, the “Growth Rate” value in data set [1] (18 h, replicate number 2) is 0.48; in data set [1] (24 h, replicate number 1), 0.45; in data set [1] (24 h, replicate number 2), 0.47; in data set [2] (0 h, replicate number 2) it was -1; in data set [2] (6 h, replicate number 1) it was -0.21; in data set [2] (12 h, replicate number 1), -0.11. Also, the “Growth Rate” value in data set [2] (18 h, replicate number 1) is on record as 0.12; in data set [2] (24 h, replicate number 1), 0.23; in data set [3] (0 h, replicate number 2) it was -1; in data set [3] (6 h, replicate number 1) it was 0.74; in data set [3] (6 h, replicate number 2) it was 0.19; in data set [3] (12 h, replicate number 1), 0.23. Moreover, the “Growth Rate” value in data set [3] (12 h, replicate number 2) is -0.1; in data set [3] (18 h, replicate number 1) it was 0.14; in data set [3] (18 h, replicate number 2) it was -0.19; in data set [3] (24 h, replicate number 1) it was 0.14; in data set [3] (24 h, replicate number 2) it was -0.13.

For `COc1ccc(CC[C@@H](OC(=O)[C@H]2CCCCN2C(=O)[C@@H](c2cc(OC)c(OC)c(OC)c2)C2CCCCC2)c2cccc(OCCN3CCOCC3)c2)cc1OC`, the “Growth Rate” value in data set [1] (0 h, replicate number 2) was -1; in data set [1] (6 h, replicate number 2) it was -0.94; in data set [1] (18 h, replicate number 1), 0.98; in data set [1] (18 h, replicate number 2), 0.99; in data set [1] (24 h, replicate number 2), 0.87; in data set [2] (0 h, replicate number 2), -0.05. The “Growth Rate” value in data set [2] (12 h, replicate number 2) is listed as 0.72; in data set [2] (18 h, replicate number 2) it was 0.52; in data set [2] (24 h, replicate number 1), 0.74; in data set [2] (24 h, replicate number 2) it was 0.49; in data set [3] (0 h, replicate number 1) it was -0.89; in data set [3] (24 h, replicate number 1), 0.99.

For the molecule `C[C@@H](Oc1cc(-n2cnc3ccc(OC4CCN(C)CC4)cc32)sc1C(N)=O)c1ccccc1Cl` [GSK-579289A], the “Growth Rate” value in data set [1] (0 h, replicate number 2) is reported as 0.48; in data set [1] (12 h, replicate number 1), 0.83; in data set [1] (12 h, replicate number 2) it was 0.84; in data set [1] (18 h, replicate number 1), 0.65; in data set [1] (24 h, replicate number 1), 0.93; in data set [1] (24 h, replicate number 2), 0.79. The “Growth Rate” value in data set [2] (0 h, replicate number 2) came out at 0.69; in data set [2] (6 h, replicate number 1) it was 0.7; in data set [2] (6 h, replicate number 2) it was 0.94; in data set [2] (12 h, replicate number 1) it was 0.7; in data set [2] (12 h, replicate number 2), 0.97; in data set [2] (18 h, replicate number 1) it was 0.82. Also, the “Growth Rate” value was 1 in data set [2] (18 h, replicate number 2); 0.93 in data set [2] (24 h, replicate number 1); 0.99 in data set [2] (24 h, replicate number 2); 0.99 in data set [3] (6 h, replicate number 1); 1 in data set [3] (6 h, replicate number 2); 0.94 in data set [3] (12 h, replicate number 1). Moreover, the “Growth Rate” value turned out to be 0.83 in data set [3] (18 h, replicate number 1) and 0.97 in data set [3] (18 h, replicate number 2).

With `CN(C)C(=O)c1cc2cnc(Nc3ccc(N4CCN(CCCCNC(=O)COc5cccc6c5C(=O)N(C5CCC(=O)NC5=O)C6=O)CC4)cn3)nc2n1C1CCCC1` (stereo not given), the “Growth Rate” value in data set [1] (0 h, replicate number 1) was -1; in data set [1] (0 h, replicate number 2) it was 0.74; in data set [1] (6 h, replicate number 2) it was 0.65; in data set [1] (18 h, replicate number 1), 0.93; in data set [1] (24 h, replicate number 1), 0.95; in data set [2] (0 h, replicate number 2) it was 0.78. The “Growth Rate” value in data set [2] (6 h, replicate number 1) is 0.52; in data set [2] (6 h, replicate number 2), 0.46; in data set [2] (12 h, replicate number 2), 0.81; in data set [2] (18 h, replicate number 1) it was 0.88; in data set [2] (18 h, replicate number 2), 0.67; in data set [2] (24 h, replicate number 1), 1. Further, the “Growth Rate” value in data set [2] (24 h, replicate number 2) was 0.81; in data set [3] (0 h, replicate number 1), -1.

On to `N=C(N)NCCC[C@H](NC(=O)C(c1ccccc1)c1ccccc1)C(=O)NCc1ccc(CNC(N)=O)cc1.O=C(O)C(F)(F)F`, for which the “Growth Rate” value in data set [1] (6 h, replicate number 1) is listed as 0.97; in data set [1] (12 h, replicate number 2), 0.88; in data set [1] (24 h, replicate number 1), 0.96; in data set [2] (0 h, replicate number 1) it was 0.26; in data set [3] (0 h, replicate number 1), -1; in data set [3] (6 h, replicate number 2) it was -0.57. The “Growth Rate” value in data set [3] (12 h, replicate number 2) amounted to 0.52; in data set [3] (18 h, replicate number 2) it was 0.75; in data set [3] (24 h, replicate number 1), 0.9; in data set [3] (24 h, replicate number 2), 0.58.
